From patent publication US8163778B2 (Hoffmann-LA Roche Inc., priority 2007, dated 2012)

These compounds were tested against T1, human liver FBPase (Homo sapiens, UniProt P09467) (assay: FBPase assay (malachite green phosphate release)). Details: recombinant human liver FBPase, 50 μM fructose-1,6-bisphosphate.
T1 construct: made in house; host or cells: E. coli
T1 sequence (P09467 2-338 limits assumed): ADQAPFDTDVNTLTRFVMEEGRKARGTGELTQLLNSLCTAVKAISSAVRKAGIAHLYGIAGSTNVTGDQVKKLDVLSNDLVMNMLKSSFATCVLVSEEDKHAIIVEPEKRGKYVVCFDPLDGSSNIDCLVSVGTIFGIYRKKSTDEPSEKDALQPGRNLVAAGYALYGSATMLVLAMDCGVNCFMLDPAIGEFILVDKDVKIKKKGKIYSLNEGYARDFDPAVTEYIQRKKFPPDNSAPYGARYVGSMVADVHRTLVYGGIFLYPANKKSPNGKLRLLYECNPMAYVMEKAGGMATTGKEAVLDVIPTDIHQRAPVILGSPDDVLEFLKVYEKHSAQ
Assay type: biochemical
Experimental: The following tests were carried out for evaluating the inhibitory activity of the compounds of the present invention against human liver FBPase (Swissprot Data base reference PO9467, entry F16P_HUMAN).
Human liver FBPase cDNA (NM_000507) was purchased from Origene Technologies, Inc, subcloned in a vector for expression in E. Coli., and sequenced. Recombinant human liver FBPase (hlFBPase) was purified according to the following protocol that uses heat denaturation similarly to that described by El-Maghrabi et al. [El-Maghrabi, M. R. et al. “Isolation of a human liver fructose-1,6-bisphosphatase cDNA and expression of the protein in Escherichia coli.” J Biol Chem 268:9466-9472, 1993.]. Briefly, E. coli cells, transiently expressing very high levels of soluble and active human liver FBPase, were suspended in 20 mM Tris-HCl pH 7.5, 1 mM EDTA, 1 mM DTT and were lysed by French press. The soluble extract was heat denatured at 65° C. for 5 min, and insoluble, denatured proteins were removed by centrifugation. The extract was then applied to a BioRad Macro-Prep High Q column equilibrated with 20 mM Tris-HCl pH 7.5, 1 mM EDTA, 1 mM DTT and the flow-through (containing FBPase activity) was collected and applied to a BioRad Macro-Prep HS column equilibrated with 20 mM HEPES pH 7.2, 1 mM DTT. A gradient of increasing NaCl concentration was then applied to the HS column and fractions were collected. Fractions containing active FBPase were pooled and further purified by size exclusion chromatography on a Sephacryl S200 column equilibrated in 20 mM Tris-HCl pH 7.5, 150 mM NaCl, 1 mM EDTA, 1 mM DTT. Purity of the enzyme preparation was >90% as assessed by Mass spectrometry.
Recombinant human liver FBPase (hlFBPase) activity was assayed through measuring the inorganic phosphate release that results from the hydrolysis of Fructose-1,6-bisphosphate by the enzyme. As described by Baykov A. A. et al. in [Baykov A. A et al., “Malachite Green procedure for orthophosphate determination and its use in alkaline phosphatase-based enzyme immunoassays”. Anal. Biochem., 171:266-270, 1988], inorganic phosphate can be readily quantified by spectrophotometry at 620 nm after complexation with ammonium molybdate/malachite green reagent. Enzymatic reaction was carried out with modifications of the procedure described by Wright S. W. et al. [Wright S. W. et al., “Anilinoquinazoline inhibitors of Fructose-1,6-bisphosphatase bind to a novel allosteric site: synthesis, in vitro characterization, and X-ray crystallography”. J. Med. Chem. 45:3865-3877, 2002]. Specifically, the reaction was carried out in 96 well plates in a final volume of 100 μl in the presence or in the absence of allosteric inhibitors. Reaction was started adding 25 ng of hlFBPase to the reaction mixture containing 50 mM HEPES-KOH buffer pH 7.2, 2 mM MgCl2, 2 mM EDTA, 1 mM DTT, 50 μM fructose-1,6-bisphosphate and 1% DMSO. After 50 minutes incubation at room temperature, the phosphate released was allowed to form a colored complex for 10 min by adding 150 μl of ammonium molybdate/malachite green reagent containing 0.03% malachite green, 0.2% ammonium molybdate, 0.05% Triton X-100 and 0.7 M H2SO4 in water that was stirred for 30 min at room temperature and filtered through 0.2 μm filter. Under these conditions, the assay was linear with time and able to detect FBPase inhibition after spectrophotometric read-out at 620 nm.

Row | SMILES | IC50 [nM]
1 | COCCOc1ccc(S(=O)(=O)NC(=O)Nc2cc(Br)cc(N)n2)cc1C [Compound 57, N-[(6-Amino-4-bromopyridin-2-yl)carbamoyl]-4-(2-methoxyethoxy)-3-methylbenzenesulfonamide] | 1770
2 | COCCc1sc(S(=O)(=O)NC(=O)Nc2cc(OC)cc(C#N)n2)cc1C [Compound 58, N-[(6-Cyano-4-methoxypyridin-2-yl)carbamoyl]-5-(2-methoxyethyl)-4-methylthiophene-2-sulfonamide] | 1960
3 | COCCc1sc(S(=O)(=O)NC(=O)Nc2cc(OC)cc(NC(=O)N(C)C)n2)cc1C [Compound 59, N-({6-[(Dimethylcarbamoyl)amino]-4-methoxypyridin-2-yl}carbamoyl)-5-(2-methoxyethyl)-4-methylthiophene-2-sulfonamide] | 2030
4 | Cc1cccc(S(=O)(=O)NC(=O)Nc2cc(Br)ccn2)c1 [Compound 60, N-[(4-Bromopyridin-2-yl)carbamoyl]-3-methylbenzenesulfonamide] | 2070
5 | COCCc1sc(S(=O)(=O)NC(=O)Nc2cc(OC)cc(NC(=O)OC)n2)cc1C [Compound 61, Methyl-{4-methoxy-6-[({[5-(2-methoxyethyl)-4-methyl-2-thienyl]sulfonyl}carbamoyl)amino]pyridin-2-yl}carbamate] | 2070
6 | COCCc1sc(S(=O)(=O)NC(=O)Nc2cc(C#N)cc(N)n2)cc1C [Compound 62, N-[(6-Amino-4-cyanopyridin-2-yl)carbamoyl]-5-(2-methoxyethyl)-4-methylthiophene-2-sulfonamide] | 2120
7 | CCOc1cc(N)nc(NC(=O)NS(=O)(=O)c2cc(C)c(CCOC)s2)c1 [Compound 64, N-[(6-Amino-4-ethoxypyridin-2-yl)carbamoyl]-5-(2-methoxyethyl)-4-methylthiophene-2-sulfonamide] | 2180
8 | N#CCc1ccc(-c2ccc(S(=O)(=O)NC(=O)Nc3cc(Br)ccn3)s2)cc1 [Compound 65, N-[(4-Bromopyridin-2-yl)carbamoyl]-5-[4-(cyanomethyl)phenyl]thiophene-2-sulfonamide] | 2210
9 | COCCc1sc(S(=O)(=O)NC(=O)Nc2cc(Br)cc(NCc3ccc(OC)cc3OC)n2)cc1C [Compound 66, N-({4-Bromo-6-[(2,4-dimethoxybenzyl)amino]pyridin-2-yl}carbamoyl)-5-(2-methoxyethyl)-4-methylthiophene-2-sulfonamide] | 2350
10 | O=C(Nc1cc(Br)cc(NC(=O)NS(=O)(=O)c2cccc(Cl)c2)n1)NS(=O)(=O)c1cccc(Cl)c1 [Compound 67, N,N′-[(4-Bromopyridine-2,6-diyl)bis(iminocarbonyl)]bis(3-chlorobenzenesulfonamide)] | 2510
11 | CCOc1cc(NC(=O)NS(=O)(=O)c2cc(C)c(CCOC)s2)nc(NC(=O)N(C)C)c1 [Compound 68, N-({6-[(Dimethylcarbamoyl)amino]-4-ethoxypyridin-2-yl}carbamoyl)-5-(2-methoxyethyl)-4-methylthiophene-2-sulfonamide] | 3050
12 | O=C(Nc1cc(Br)ccn1)NS(=O)(=O)c1ccc(Cl)cc1 [Compound 69, N-[(4-Bromopyridin-2-yl)carbamoyl]-4-chlorobenzenesulfonamide] | 3070
13 | CNC(=O)Nc1cc(OC)cc(NC(=O)NS(=O)(=O)c2cn(C)c3c(OCC(=O)N(C)C)cccc23)n1 [Compound 70, 2-[(3-{[({4-Methoxy-6-[(methylcarbamoyl)amino]pyridin-2-yl}carbamoyl)amino]sulfonyl}-1-methyl-1H-indol-7-yl)oxy]-N,N-dimethylacetamide] | 3430
14 | COCCc1sc(S(=O)(=O)NC(=O)Nc2cc(SC)cc(O)n2)cc1C [Compound 71, N-{[6-Hydroxy-4-(methylthio)pyridin-2-yl]carbamoyl}-5-(2-methoxyethyl)-4-methylthiophene-2-sulfonamide] | 4030
15 | Cc1cccc(S(=O)(=O)NC(=O)Nc2cccc(Cl)n2)c1 [Compound 72, N-[(6-Chloropyridin-2-yl)carbamoyl]-3-methylbenzenesulfonamide] | 4600
16 | COCCc1sc(S(=O)(=O)NC(=O)Nc2cc(SC)cc(NCCCC(=O)OC)n2)cc1C [Compound 73, Methyl-4-({6-[({[5-(2-methoxyethyl)-4-methyl-2-thienyl]sulfonyl}carbamoyl)amino]-4-(methylthio)pyridin-2-yl}amino)butanoate] | 1740
17 | COCCc1sc(S(=O)(=O)NC(=O)Nc2cc(SC)cc(NCCCO)n2)cc1C [Compound 74, N-({6-[(3-Hydroxypropyl)amino]-4-(methylthio)pyridin-2-yl}carbamoyl)-5-(2-methoxyethyl)-4-methylthiophene-2-sulfonamide] | 2260
18 | COCCc1sc(S(=O)(=O)NC(=O)Nc2cc(SC)cc(NCCC(F)(F)F)n2)cc1C [Compound 75, 5-(2-Methoxyethyl)-4-methyl-N-({4-(methylthio)-6-[(3,3,3-trifluoropropyl)amino]pyridin-2-yl}carbamoyl)thiophene-2-sulfonamide] | 1690
19 | CC(=O)OCCc1sc(S(=O)(=O)NC(=O)Nc2cc(C(F)(F)F)ccn2)cc1C [Compound 77, 2-{3-Methyl-5-[({[4-(trifluoromethyl)pyridin-2-yl]carbamoyl}amino)sulfonyl]-2-thienyl}ethyl acetate] | 809
20 | Cc1cc(S(=O)(=O)NC(=O)Nc2cc(C(F)(F)F)ccn2)sc1CCO [Compound 78, 5-(2-Hydroxyethyl)-4-methyl-N-{[4-(trifluoromethyl)pyridin-2-yl]carbamoyl}thiophene-2-sulfonamide] | 906
21 | COCCc1sc(S(=O)(=O)NC(=O)Nc2cc(C(F)(F)F)c(F)c(N)n2)cc1C [Compound 79, N-{[6-Amino-5-fluoro-4-(trifluoromethyl)pyridin-2-yl]carbamoyl}-5-(2-methoxyethyl)-4-methylthiophene-2-sulfonamide] | 558
22 | C=C(C)CNc1cc(SC)cc(NC(=O)NS(=O)(=O)c2cc(C)c(CCOC)s2)n1 [Compound 80, 5-(2-Methoxyethyl)-4-methyl-N-({6-[(2-methylprop-2-en-1-yl)amino]-4-(methylthio)pyridin-2-yl}carbamoyl)thiophene-2-sulfonamide] | 1610
23 | CC(=O)OCCc1sc(S(=O)(=O)NC(=O)Nc2cc(C(F)(F)F)c(F)c(N)n2)cc1C [Compound 81, 2-{5-[({[6-Amino-5-fluoro-4-(trifluoromethyl)pyridin-2-yl]carbamoyl}amino)sulfonyl]-3-methyl-2-thienyl}ethyl acetate] | 665
24 | Nc1cc(Br)cc(NC(=O)NS(=O)(=O)c2coc3ccccc23)n1 [Compound 82, N-[(6-Amino-4-bromopyridin-2-yl)carbamoyl]-1-benzofuran-3-sulfonamide] | 1870
25 | Nc1cc(Br)cc(NC(=O)NS(=O)(=O)c2coc3ccc(Br)cc23)n1 [Compound 83, N-[(6-Amino-4-bromopyridin-2-yl)carbamoyl]-5-bromo-1-benzofuran-3-sulfonamide] | 5230
26 | Cc1cc(S(=O)(=O)NC(=O)Nc2cc(C(F)(F)F)c(F)c(N)n2)sc1CCO [Compound 84, N-{[6-Amino-5-fluoro-4-(trifluoromethyl)pyridin-2-yl]carbamoyl}-5-(2-hydroxyethyl)-4-methylthiophene-2-sulfonamide] | 429
